According to PubChem BioAssay AID248 (DTP/NCI, 2004):
Values joined by “and” are separate entries in the source; they are usually repeats but may differ in a detail not shown here. Equal values may be shown once. Toxic doses and inconclusive results are not listed.

System: L1210 leukemia ip in BDF1 mice, survival T/C
Test: NCI In Vivo Anticancer Drug Screen. Data for tumor model L1210 Leukemia (intraperitoneal) in B6D2F1 (BDF1) mice
Settings: endpoint: mean survival time, higher = longer survival
In short: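 Value reflects the ratio of survival in compound-treated mice to survival in vehicle-treated controls, with both groups carrying the same transplanted tumor.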

[1] = dose: 12.5 mg/kg/injection, schedule: Q01DX009 (ip), vehicle: Klucel (hydroxypropylcellulose) (HPC)
[2] = dose: 100.0 mg/kg/injection, schedule: Q04DX002 (ip), vehicle: Klucel (hydroxypropylcellulose) (HPC)
[3] = dose: 200.0 mg/kg/injection, schedule: Q04DX002 (ip), vehicle: Klucel (hydroxypropylcellulose) (HPC)
[4] = dose: 400.0 mg/kg/injection, schedule: Q04DX002 (ip), vehicle: Klucel (hydroxypropylcellulose) (HPC)
[5] = dose: 100.0 mg/kg/injection, schedule: Q01DX009 (ip), vehicle: Klucel (hydroxypropylcellulose) (HPC)
[6] = dose: 100.0 mg/kg/injection, schedule: Q04DX003 (ip), vehicle: Klucel (hydroxypropylcellulose) (HPC)
[7] = dose: 200.0 mg/kg/injection, schedule: Q01DX009 (ip), vehicle: Klucel (hydroxypropylcellulose) (HPC)
[8] = dose: 200.0 mg/kg/injection, schedule: Q04DX003 (ip), vehicle: Klucel (hydroxypropylcellulose) (HPC)
[9] = dose: 400.0 mg/kg/injection, schedule: Q01DX009 (ip), vehicle: Klucel (hydroxypropylcellulose) (HPC)
[10] = dose: 400.0 mg/kg/injection, schedule: Q04DX003 (ip), vehicle: Klucel (hydroxypropylcellulose) (HPC)
[11] = dose: 100.0 mg/kg/injection, schedule: Q01DX001 (ip), vehicle: saline with Tween-80
[12] = dose: 100.0 mg/kg/injection, schedule: Q01DX009 (ip), vehicle: saline with Tween-80
[13] = dose: 100.0 mg/kg/injection, schedule: Q04DX002 (ip), vehicle: saline with Tween-80
[14] = dose: 100.0 mg/kg/injection, schedule: Q04DX003 (ip), vehicle: saline with Tween-80
[15] = dose: 200.0 mg/kg/injection, schedule: Q01DX001 (ip), vehicle: saline with Tween-80
[16] = dose: 200.0 mg/kg/injection, schedule: Q01DX009 (ip), vehicle: saline with Tween-80
[17] = dose: 200.0 mg/kg/injection, schedule: Q04DX002 (ip), vehicle: saline with Tween-80
[18] = dose: 200.0 mg/kg/injection, schedule: Q04DX003 (ip), vehicle: saline with Tween-80
[19] = dose: 400.0 mg/kg/injection, schedule: Q04DX002 (ip), vehicle: saline with Tween-80
[20] = dose: 400.0 mg/kg/injection, schedule: Q04DX003 (ip), vehicle: saline with Tween-80

ONC12CC3CC(CC(C3)C1)C2
T/C [1]: 98 % of control
T/C (dose: 25.0 mg/kg/injection, schedule: Q01DX009 (ip), vehicle: Klucel (hydroxypropylcellulose) (HPC)): 95 % of control
T/C (dose: 50.0 mg/kg/injection, schedule: Q01DX009 (ip), vehicle: Klucel (hydroxypropylcellulose) (HPC)): 95 % of control
T/C (dose: 100.0 mg/kg/injection, schedule: Q01DX001 (ip), vehicle: Klucel (hydroxypropylcellulose) (HPC)): 97 % of control

O=C(CCCC(=O)N/N=C/c1ccc(O)cc1O)N/N=C\c1ccc(O)cc1O
T/C (dose: 50.0 mg/kg/injection, schedule: Q01DX001 (ip), vehicle: saline): 90 % of control
T/C (dose: 100.0 mg/kg/injection, schedule: Q01DX001 (ip), vehicle: saline): 96 % of control
T/C (dose: 200.0 mg/kg/injection, schedule: Q01DX001 (ip), vehicle: saline): 96 % of control
T/C (dose: 400.0 mg/kg/injection, schedule: Q01DX001 (ip), vehicle: saline): 93 % of control

O=C(Nc1ccc(Cl)cc1)O/C(=C(/OC(=O)Nc1ccc(Cl)cc1)c1ccc(Cl)cc1)c1ccc(Cl)cc1
T/C [2]: 96 % of control
T/C [3]: 92 % of control
T/C [4]: 89 % of control

CC(C)(C)C1=NN=C(C(C)(C)C)CSC1
T/C [5]: 95 % of control and 100 % of control
T/C [2]: 98 % of control and 103 % of control
T/C [6]: 101 % of control
T/C [7]: 101 % of control and 113 % of control
T/C [3]: 103 % of control and 105 % of control
T/C [8]: 97 % of control
T/C [9]: 101 % of control and 92 % of control
T/C [4]: 98 % of control and 105 % of control
T/C [10]: 95 % of control

NS(=O)(=O)c1ccc(NC(=O)Nc2cccc3ccccc23)cc1
T/C [11]: 91 % of control
T/C [12]: 101 % of control and 108 % of control
T/C [13]: 95 % of control and 100 % of control
T/C [14]: 105 % of control
T/C [15]: 87 % of control
T/C [16]: 93 % of control and 100 % of control
T/C [17]: 98 % of control and 100 % of control
T/C [18]: 103 % of control
T/C (dose: 400.0 mg/kg/injection, schedule: Q01DX001 (ip), vehicle: saline with Tween-80): 94 % of control
T/C (dose: 400.0 mg/kg/injection, schedule: Q01DX009 (ip), vehicle: saline with Tween-80): 96 % of control and 105 % of control
T/C [19]: 93 % of control and 96 % of control
T/C [20]: 108 % of control

O=C(Nc1ccc(C2=NCCN2)cc1)c1cc(Cl)c(C(=O)Nc2ccc(C3=NCCN3)cc2)cc1Cl
T/C (dose: 13.4 mg/kg/injection, schedule: Q01DX Z (ip), vehicle: carboxymethylcellulose (CMC)): 104 % of control
T/C (dose: 20.0 mg/kg/injection, schedule: Q01DX Z (ip), vehicle: carboxymethylcellulose (CMC)): 123 % of control
T/C (dose: 45.0 mg/kg/injection, schedule: Q01DX Z (ip), vehicle: carboxymethylcellulose (CMC)): 88 % of control

CSc1ccc(NC(=O)C(O)C(O)C(O)C(O)CO)cc1 (centres undefined)
T/C [14]: 89 % of control
T/C [18]: 100 % of control
T/C [20]: 95 % of control

CC1(C)c2ccccc2C(=O)C1(Br)Cc1ccccc1 (centres undefined)
T/C [12]: 90 % of control

NC(=S)c1cccc(OCCc2ccccc2)c1
T/C [11]: 97 % of control
T/C [15]: 102 % of control

CN(C)C(=O)CNc1ccc(S(=O)(=O)c2ccc(Cl)cc2)cc1
T/C [14]: 101 % of control
T/C [18]: 101 % of control
T/C [20]: 95 % of control

O=S(=O)(/C=C(/Cl)c1ccccc1)c1ccccc1
T/C (dose: 25.0 mg/kg/injection, schedule: Q01DX009 (ip), vehicle: acetone): 92 % of control
T/C (dose: 50.0 mg/kg/injection, schedule: Q01DX009 (ip), vehicle: acetone): 90 % of control
T/C (dose: 100.0 mg/kg/injection, schedule: Q01DX001 (ip), vehicle: acetone): 101 % of control
T/C (dose: 100.0 mg/kg/injection, schedule: Q04DX003 (ip), vehicle: acetone): 103 % of control
T/C (dose: 200.0 mg/kg/injection, schedule: Q01DX001 (ip), vehicle: acetone): 102 % of control
T/C (dose: 400.0 mg/kg/injection, schedule: Q01DX001 (ip), vehicle: acetone): 104 % of control

COc1ccccc1N=NN(C)C
T/C (dose: 1.0 mg/kg/injection, schedule: Q01DX009 (ip), vehicle: Klucel (hydroxypropylcellulose) (HPC)): 115 % of control
T/C (dose: 3.0 mg/kg/injection, schedule: Q01DX009 (ip), vehicle: Klucel (hydroxypropylcellulose) (HPC)): 101 % of control
T/C (dose: 3.12 mg/kg/injection, schedule: Q01DX009 (ip), vehicle: Klucel (hydroxypropylcellulose) (HPC)): 100 % of control
T/C (dose: 3.12 mg/kg/injection, schedule: Q04DX003 (ip), vehicle: Klucel (hydroxypropylcellulose) (HPC)): 95 % of control
T/C (dose: 6.0 mg/kg/injection, schedule: Q01DX009 (ip), vehicle: Klucel (hydroxypropylcellulose) (HPC)): 115 % of control
T/C (dose: 6.25 mg/kg/injection, schedule: Q01DX009 (ip), vehicle: Klucel (hydroxypropylcellulose) (HPC)): 108 % of control
T/C (dose: 6.25 mg/kg/injection, schedule: Q04DX003 (ip), vehicle: Klucel (hydroxypropylcellulose) (HPC)): 109 % of control
T/C [1]: 94 % of control
T/C (dose: 12.5 mg/kg/injection, schedule: Q04DX003 (ip), vehicle: Klucel (hydroxypropylcellulose) (HPC)): 113 % of control

Nc1nc(SCc2ccccc2)c2ncn(C3OC(CO)CC3O)c2n1 (centres undefined)
T/C (dose: 25.0 mg/kg/injection, schedule: Q01DX009 (ip), vehicle: other): 113 % of control
T/C (dose: 50.0 mg/kg/injection, schedule: Q01DX001 (ip), vehicle: carboxymethylcellulose (CMC)): 110 % of control
T/C (dose: 50.0 mg/kg/injection, schedule: Q01DX009 (ip), vehicle: other): 158 % of control
T/C (dose: 100.0 mg/kg/injection, schedule: Q01DX001 (ip), vehicle: carboxymethylcellulose (CMC)): 116 % of control
T/C (dose: 100.0 mg/kg/injection, schedule: Q01DX009 (ip), vehicle: other): 158 % of control
T/C (dose: 400.0 mg/kg/injection, schedule: Q01DX001 (ip), vehicle: carboxymethylcellulose (CMC)): 150 % of control
T/C (dose: 400.0 mg/kg/injection, schedule: Q01DX009 (ip), vehicle: other): 95 % of control
T/C (dose: 600.0 mg/kg/injection, schedule: Q01DX001 (ip), vehicle: carboxymethylcellulose (CMC)): 155 % of control

CC(C)C/C=C/C(=O)CC(=O)OC(C)C
T/C (dose: 75.0 mg/kg/injection, schedule: Q01DX001 (ip), vehicle: other): 97 % of control
T/C (dose: 150.0 mg/kg/injection, schedule: Q01DX001 (ip), vehicle: other): 101 % of control
T/C (dose: 300.0 mg/kg/injection, schedule: Q01DX001 (ip), vehicle: other): 117 % of control

COc1cc(/C=C2/CCCCC2=O)ccc1O
T/C (dose: 100.0 mg/kg/injection, schedule: Q04DX003 (ip), vehicle: other): 93 % of control
T/C (dose: 200.0 mg/kg/injection, schedule: Q04DX003 (ip), vehicle: other): 100 % of control
T/C (dose: 400.0 mg/kg/injection, schedule: Q04DX003 (ip), vehicle: other): 94 % of control

CNC1(Cc2ccc(F)cc2)CCC1
T/C (dose: 100.0 mg/kg/injection, schedule: Q01DX009 (ip), vehicle: saline): 100 % of control

c1ccc2c(C3OCC4(CCC4)CO3)cccc2c1
T/C [5]: 91 % of control
T/C [6]: 91 % of control
T/C [7]: 96 % of control
T/C [8]: 100 % of control
T/C [9]: 97 % of control
T/C [10]: 94 % of control

Cc1nc(Cl)c(C#N)c(C(F)(F)F)c1N
T/C (dose: 100.0 mg/kg/injection, schedule: Q01DX Z (ip), vehicle: carboxymethylcellulose (CMC)): 95 % of control

O=C(CNC(=O)Nc1ccc(Cl)c(Cl)c1)N/N=C/c1c(O)ccc2ccccc12
T/C (dose: 50.0 mg/kg/injection, schedule: Q01DX009 (ip), vehicle: saline with Tween-80): 93 % of control
T/C [12]: 93 % of control
T/C [16]: 91 % of control

CN(C)N=Nc1ccc(-c2nnco2)cc1
T/C [13]: 110 % of control
T/C [17]: 106 % of control
T/C [19]: 119 % of control

O=C1OC(=O)c2cscc21
T/C [14]: 88 % of control
T/C [18]: 94 % of control
